Assay results taken from patent publication US20070088043A1, “Novel HDAC inhibitors” (ORCHID RESEARCH LABORATORIES LIMITED., priority 2005, published 2007).

Tests used:
NCIH 460 cells = test: Anti-cancer screen (MTT), NCIH460; format: cell-based; conditions: Homo sapiens, NCI-H460, NCIH460 cells, 48 hours, MTT; for GI50: concentration to decrease % growth by 50%; for IC100: concentration to decrease % growth by 100%, read-out: NCIH460 TGI; for LC50: concentration to decrease % growth by 150%
Method: (§1) Experimental drugs are screened for anti-cancer activity in three cell lines for their GI50, TGI and LC50 values (using five concentrations for each compound). The cell lines are maintained in DMEM containing 10% fetal bovine serum. 96 well micro titer plates are inoculated with cells in 100 μL for 24 h at 37° C., 5% CO2, 95% air and 100% relative humidity. 5000 HCT 116 cells/well, 5000 NCIH 460 cells/well and 5000 U251 cells/well are plated. A separate plate with these cell lines is also inoculated to determine cell viability before the addition of the compounds (T0).
(§2) Following 24-hour incubation, experimental drugs are added to the 96 well plates. Each plate contains one of the above cell lines and the following in triplicate: five different concentrations (0.01, 0.1, 1, 10 and 100 μM) of four different compounds, appropriate dilutions of a cytotoxic standard and control (untreated) wells. Compounds are dissolved in DMSO to make 20 mM stock solutions on the day of drug addition and frozen at −20° C. Serial dilutions of these 20 mM stock solutions are made in complete growth medium such that 100 μL of these drug solutions in medium, of final concentrations equaling 0.01, 0.1, 1, 10 and 100 μM can be added to the cells in triplicate. Standard drugs whose anti-cancer activity has been well documented and which are regularly used are doxorubicin and SAHA.
(§3) For To measurement, 24 hours after seeding the cells, 10 μL of 3-(4,5-Dimethyl-2-thiazolyl)-2,5-diphenyl-2H-tetrazolium (MTT) solution per well is added and incubation carried out for 3 hours at 37° C., 5% CO2, 95% air and 100% relative humidity, protected from light. Cells incubated with compounds for 48 hours are treated similarly except with the addition of 20 μL MTT solution per well and a subsequent incubation under the same conditions. After 3 hours of MTT incubation, well contents are aspirated carefully followed by addition of 150 μL DMSO per well. Plates are agitated to ensure solution of the formazan crystals in DMSO and absorbance read at 570 nm. […]

HCT 116 cells = test: Anti-cancer screen (MTT), HCT116; format: cell-based; conditions: Homo sapiens, HCT-116, HCT116 cells, 48 hours, MTT; for GI50: concentration to decrease % growth by 50%; for IC100: concentration to decrease % growth by 100%, read-out: HCT116 TGI; for LC50: concentration to decrease % growth by 150%
Method: as §1, §2, §3

MDAMB231/U251 = test: Anti-cancer screen (MTT), MDAMB231/U251; format: cell-based; conditions: MDAMB231/U251 cells, 48 hours; for GI50: concentration to decrease % growth by 50%; for IC100: concentration to decrease % growth by 100%, read-out: MDAMB231/U251 TGI; for LC50: concentration to decrease % growth by 150%
Method: as §1, §2, §3

[1] = tested on: NCIH460, HCT116, MDAMB231/U251; test: Anti-cancer screen, mean GI50 over the cell lines; format: cell-based; conditions: in µM
Method: as §1, §2, §3

[2] = tested on: HDAC (Mouse Liver Extract); test: Histone Deacetylase (HDAC) Inhibition Assay using Boc-Lys (Ac)-AMC Substrate; format: biochemical; conditions: mouse liver enzyme, NA = No Activity; for HDAC Inhibition 1 μM / HDAC Inhibition 10 μM: in % (unit assumed)
Text: HDAC Activitv Screening: Histone Deacetylase (HDAC) Inhibition Assay using Boc-Lys (Ac)-AMC Substrate:
Inhibition of HDAC has been implicated to modulate transcription and to induce apoptosis or differentiation in cancer cells. The fluorometric assay provides a fast and fluorescence based method that eliminates radioactivity, extractions or chromatography, as used in traditional assays. The assay based on two steps. First, the HDAC fluorometric substrate, which comprises an acetylated lysine side chain, is incubated with a sample containing HDAC activity (Mouse Liver Extract). Deacetylation of the substrate sensitizes the substrate, in the second step; treatment with the Trypsin stop solution produces a fluorophore that can be easily analyzed using fluorescence plate reader.
Assay was done in 96 well black microplate and total volume of the assay is 100 ul. Mouse liver enzyme is diluted 1:6 with HDAC buffer. Enzyme cocktail made of 10 ul of diluted enzyme and 30 ul of HDAC buffer. 40 ul of enzyme cocktail dispensed into each well. 10 ul of different concentrations of inhibitor added in to each well, except enzyme control well. Preincubated the plate at 30° C. for 5 minutes. The HDAC reaction is started by adding 50 ul of HDAC substrate (Boc-Lys (Ac)-AMC Substrate) solution. Incubated the plate at 30° C. for 30 minutes. Adding 100 ul of Trypsin stop solution stops the reaction. The plate is incubated again at 30° C. for 20-30 minutes. The release of AMC is monitored by measuring the fluorescence at excitation wavelength of 365 or 360 nm and emission wavelength of 440 or 460 nm. Buffer and substrate alone kept for blank subtraction. (Dennis Wegener et al, Anal. Biochem, 321, 2003, 202-208).

CC(=O)SCCCCCC(=O)N1CCN(CC(=O)Nc2nc3ccccc3s2)CC1 [Example 6, 2-[4-(6-Thioacetylhexanoyl)piperazin-1-yl]-N-(1,3-benzothiazol-2-yl)acetamide]
GI50 (NCIH 460 cells): 0.8 µM
IC100 (NCIH 460 cells): 53 µM
LC50 (NCIH 460 cells): > 100 µM
GI50 (HCT 116 cells): 4.5 µM
IC100 (HCT 116 cells): 42 µM
LC50 (HCT 116 cells): > 100 µM
GI50 (MDAMB231/U251): 0.01 µM
IC100 (MDAMB231/U251): 0.4 µM
LC50 (MDAMB231/U251): > 100 µM
Mean GI50 [1]: 2.00
HDAC Inhibition 1 μM [2]: 63.40
HDAC Inhibition 10 μM [2]: 83.30
IC50 [2]: 0.062 µM

CC(=O)SCCCCC(=O)N1CCN(CC(=O)Nc2cccc(F)c2)CC1 [Example 23, 2-[4-(5-Thioacetylpentanoyl)piperazin-1-yl]-N-(6-fluorophenyl-2-yl)acetamide]
GI50 (NCIH 460 cells): > 100 µM
IC100 (NCIH 460 cells): > 100 µM
LC50 (NCIH 460 cells): > 100 µM
GI50 (HCT 116 cells): 63 µM
IC100 (HCT 116 cells): > 100 µM
LC50 (HCT 116 cells): > 100 µM
GI50 (MDAMB231/U251): 38 µM
IC100 (MDAMB231/U251): 78 µM
LC50 (MDAMB231/U251): > 100 µM
Mean GI50 [1]: >100
HDAC Inhibition 1 μM [2]: 47.2
HDAC Inhibition 10 μM [2]: 81.7
IC50 [2]: 4.8 µM

COc1cccc2sc(NC(=O)CN3CCN(C(=O)CCCCCSC(C)=O)CC3)nc12 [Example 21, 2-[4-(6-Thioacetylhexanoyl)piperazin-1-yl]-N-(4-methoxy-1,3-benzothiazol-2-yl)acetamide]
GI50 (NCIH 460 cells): 93 µM
IC100 (NCIH 460 cells): > 100 µM
LC50 (NCIH 460 cells): > 100 µM
GI50 (HCT 116 cells): 52 µM
IC100 (HCT 116 cells): > 100 µM
LC50 (HCT 116 cells): > 100 µM
GI50 (MDAMB231/U251): 38 µM
IC100 (MDAMB231/U251): > 100 µM
LC50 (MDAMB231/U251): > 100 µM
Mean GI50 [1]: 61
HDAC Inhibition 1 μM [2]: 82.9
HDAC Inhibition 10 μM [2]: 96.2
IC50 [2]: 0.57 µM

CC(=O)SCCCCCC(=O)N1CCN(CC(=O)Nc2nc3ccc(C)cc3s2)CC1 [Example 12, 2-[4-(6-Thioacetylhexanoyl)piperazin-1-yl]-N-(6-methyl-1,3-benzothiazol-2-yl)acetamide]
GI50 (NCIH 460 cells): 25 µM
IC100 (NCIH 460 cells): 75 µM
LC50 (NCIH 460 cells): > 100 µM
GI50 (HCT 116 cells): 7 µM
IC100 (HCT 116 cells): > 100 µM
LC50 (HCT 116 cells): ≥ 100 µM
GI50 (MDAMB231/U251): 19 µM
IC100 (MDAMB231/U251): 65 µM
LC50 (MDAMB231/U251): > 100 µM
Mean GI50 [1]: 17
HDAC Inhibition 1 μM [2]: 57.31
HDAC Inhibition 10 μM [2]: 85.59

CC(=O)SCCCCC(=O)N1CCN(CC(=O)Nc2nc3ccc(C)cc3s2)CC1 [Example 11, 2-[4-(5-Thioacetylpentanoyl)piperazin-1-yl]-N-(6-methyl-1,3-benzothiazol-2-yl)acetamide]
GI50 (NCIH 460 cells): 0.3 µM
IC100 (NCIH 460 cells): 0.9 µM
LC50 (NCIH 460 cells): 8 µM
GI50 (HCT 116 cells): 5 µM
IC100 (HCT 116 cells): 40 µM
LC50 (HCT 116 cells): > 100 µM
GI50 (MDAMB231/U251): 1 µM
IC100 (MDAMB231/U251): 8 µM
LC50 (MDAMB231/U251): > 100 µM
Mean GI50 [1]: 2.10
HDAC Inhibition 1 μM [2]: 31.75
HDAC Inhibition 10 μM [2]: 65.63
IC50 [2]: 6.5 µM

CC(=O)SCCCCC(=O)N1CCN(C(=O)CNc2nc3ccccc3s2)CC1 [Example 1, N-{2-[4-(5-thioacetylpentanoyl)piperazin-1-yl]-2-oxoethyl}-1,3-benzothiazol-2-amine]
GI50 (NCIH 460 cells): > 100 µM
IC100 (NCIH 460 cells): > 100 µM
LC50 (NCIH 460 cells): > 100 µM
GI50 (HCT 116 cells): > 100 µM
IC100 (HCT 116 cells): > 100 µM
LC50 (HCT 116 cells): > 100 µM
GI50 (MDAMB231/U251): 80 µM
IC100 (MDAMB231/U251): > 100 µM
LC50 (MDAMB231/U251): > 100 µM
Mean GI50 [1]: >100
HDAC Inhibition 1 μM [2]: 10.48
HDAC Inhibition 10 μM [2]: 38.59

CC(=O)SCCCCC(=O)N1CCN(CC(=O)Nc2ccccc2)CC1 [Example 16, 2-[4-(5-Thioacetylpentanoyl)piperazin-1-yl]-N-(phenyl-2-yl)acetamide]
GI50 (NCIH 460 cells): 30 µM
IC100 (NCIH 460 cells): 52 µM
LC50 (NCIH 460 cells): > 100 µM
GI50 (HCT 116 cells): 58 µM
IC100 (HCT 116 cells): > 100 µM
LC50 (HCT 116 cells): > 100 µM
GI50 (MDAMB231/U251): 1 µM
IC100 (MDAMB231/U251): > 100 µM
LC50 (MDAMB231/U251): > 100 µM
Mean GI50 [1]: 29.67
HDAC Inhibition 1 μM [2]: 29.26
HDAC Inhibition 10 μM [2]: 68.52

CC(=O)SCCCCCC(=O)N1CCN(CC(=O)Nc2ccccc2)CC1 [Example 18, 2-[4-(6-Thioacetylhexanoyl)piperazin-1-yl]-N-(phenyl-2-yl)acetamide]
GI50 (NCIH 460 cells): 30 µM
IC100 (NCIH 460 cells): > 100 µM
LC50 (NCIH 460 cells): > 100 µM
GI50 (HCT 116 cells): 63 µM
IC100 (HCT 116 cells): > 100 µM
LC50 (HCT 116 cells): > 100 µM
GI50 (MDAMB231/U251): > 100 µM
IC100 (MDAMB231/U251): > 100 µM
LC50 (MDAMB231/U251): > 100 µM
Mean GI50 [1]: 46.50
HDAC Inhibition 1 μM [2]: 65.15
HDAC Inhibition 10 μM [2]: 94.50

CCOc1ccc2nc(NC(=O)CN3CCN(C(=O)CCCCCCC(=O)N(O)C(C)=O)CC3)sc2c1 [Example 37, 8-{4-[2-(6-Ethoxy-1,3-benzothiazol-2-ylamino)-2-oxoethyl]piperazin-1-yl}-N-acetyl-N-hydroxy-8-oxooctanamide]
GI50 (NCIH 460 cells): 40 µM
IC100 (NCIH 460 cells): 74 µM
LC50 (NCIH 460 cells): > 100 µM
GI50 (HCT 116 cells): 7 µM
IC100 (HCT 116 cells): 44 µM
LC50 (HCT 116 cells): > 100 µM
GI50 (MDAMB231/U251): 4 µM
IC100 (MDAMB231/U251): 45 µM
LC50 (MDAMB231/U251): 95 µM
Mean GI50 [1]: 17.00
HDAC Inhibition 1 μM [2]: 55.57
HDAC Inhibition 10 μM [2]: 94.70

Cc1ccc2nc(NC(=O)CN3CCN(C(=O)CCCCCCC(=O)NO)CC3)sc2c1 [Example 35, 8-{4-[2-(6-Methyl-1,3-benzothiazol-2-ylamino)-2-oxoethyl]piperazin-1-yl}-N-hydroxy-8-oxo octanamide]
GI50 (NCIH 460 cells): 56 µM
IC100 (NCIH 460 cells): 100 µM
LC50 (NCIH 460 cells): > 100 µM
GI50 (HCT 116 cells): 8 µM
IC100 (HCT 116 cells): 40 µM
LC50 (HCT 116 cells): 92 µM
GI50 (MDAMB231/U251): 5 µM
IC100 (MDAMB231/U251): 45 µM
LC50 (MDAMB231/U251): > 100 µM
Mean GI50 [1]: 23
HDAC Inhibition 1 μM [2]: 68.3
HDAC Inhibition 10 μM [2]: 96.93

CC(=O)SCCCCC(=O)N1CCN(CC(=O)Nc2nc3c(C)cccc3s2)CC1 [Example 13, 2-[4-(5-Thioacetylpentanoyl)piperazin-1-yl]-N-(4-methyl-1,3-benzothiazol-2-yl)acetamide]
GI50 (NCIH 460 cells): > 100 µM
IC100 (NCIH 460 cells): > 100 µM
LC50 (NCIH 460 cells): > 100 µM
GI50 (HCT 116 cells): 6 µM
IC100 (HCT 116 cells): > 100 µM
LC50 (HCT 116 cells): > 100 µM
GI50 (MDAMB231/U251): 6 µM
IC100 (MDAMB231/U251): 30 µM
LC50 (MDAMB231/U251): > 100 µM
Mean GI50 [1]: >100
HDAC Inhibition 1 μM [2]: 26.73
HDAC Inhibition 10 μM [2]: 55.56
